Format in all cases: physicochemical
Data set [1] is described as follows: MIBK/water distribution ratio of epoxy crosslinking agent. Particulars: 5.0 g water, 5.0 g MIBK, 0.5 g crosslinking agent, 23±2° C., average of three. The procedure:
Method of measuring the MIBK/water distribution ratio: in a test tube, 5.0 g of water, 5.0 g of methyl isobutyl ketone (MIBK) and 0.5 g of the epoxy crosslinking agent are precisely weighed and mixed with stirring at 23° C.±2° C. for 3 minutes, and the resulting mixture is centrifuged at 1.0×103 G for 10 minutes and thereby separated into an aqueous layer and an MIBK layer, after which the MIBK layer is fractionated and weighed to calculate the MIBK/water distribution ratio using the following equation: MIBK/water distribution ratio (%)=(Weight of separated MIBK layer (g)−Weight of MIBK before separation (g))/Weight of added crosslinking agent (g)×100 • this measurement is performed three times, and an average value thereof is defined as the MIBK/water distribution ratio.
First, about 5.0 g of water, about 5.0 g of MIBK and about 0.5 g of the epoxy crosslinking agent are precisely weighed and added to a test tube. The weight of MIBK and that of the epoxy crosslinking agent are defined as M (g) and E (g), respectively.
This mixture is thoroughly mixed with stirring for 3 minutes at a temperature of 23° C.±2° C. and subsequently separated into an aqueous layer and an MIBK layer by 10-minute centrifugation at 1.0×10^3 G. Thereafter, the weight of the MIBK layer is measured and defined as ML (g). MIBK/water distribution ratio (%)=(ML (g)−M (g))/E (g)×100
The methyl isobutyl ketone (MIBK)/water distribution ratio (%) was measured for the purpose of checking the amount of the movement of each epoxy crosslinking agent into an MIBK layer in an environment similar to the environment in a latex liquid.
3. Fractionate the thus separated MIBK layer into a disposable cup using a Pasteur pipette and measure the weight of the MIBK layer.
4. Calculate the MIBK/water distribution ratio using the following equation: MIBK/water distribution ratio (%)=(Weight (g) of separated MIBK layer−Weight (g) of MIBK before separation))/(Weight (g) of added crosslinking agent)×100
5. Perform this measurement three times, and calculate the average value thereof as the MIBK/water distribution ratio.
It is noted here that a vortex mixer (VORTEX-GENIE 2 Mixer, standard model; manufactured by Scientific Industries, Inc.) was used for the stirring in the procedure 2.

Data set [2] can be described thus: Dissolution rate in water of epoxy crosslinking agent. Particulars: 25.0 g in 225 g water (25° C.), stirred 15 minutes, left to stand 1 hour. The procedure:
1. Precisely weigh 25.0 g of the epoxy crosslinking agent composition in a beaker, and add thereto 225 g of water (25° C.).
2. Vigorously stir and mix the resultant at room temperature (23° C.±2° C.) for 15 minutes, and leave the resulting mixture to stand for 1 hour.
3. Measure the volume (mL) of an oily matter precipitated on the bottom of the beaker.
The dissolution rate in water (%) was measured for the purpose of checking the solubility of each epoxy crosslinking agent in water. The dissolution rate in water can be measured by the following procedures.
1. Precisely weigh 25.0 g of the subject crosslinking agent composition in a beaker.
2. Add 225 g of 25° C. water, and vigorously stir the resultant at room temperature for 15 minutes using a magnetic stirrer.
3. After leaving the beaker to stand at room temperature for 1 hour, measure the volume (mL) of an oily matter precipitated on the bottom.

A short description of data set [3]: Pot life (working life) of dip molding composition. The following applies: XNBR NL120H(a). The source says:
The term “pot life” used herein represents a property of a dip molding composition, and a method of determining the “pot life” will be described below in the section of Examples. Specifically, the “pot life” refers to a period from the preparation of a dip molding composition to the formation of a cured film, in which period the use of the dip molding composition allows the resulting cured film to satisfy specific criteria.
In the present invention, the acceptable level of the pot life of the dip molding composition necessary for mass production is defined as a level at which a film produced using the dip molding composition that has been stored for at least 3 days satisfies a tensile strength of 20 MPa or higher and a fatigue durability of 240 minutes or longer, which are performances required as a glove.
The pot life is determined based on the time from the addition of an epoxy crosslinking agent in the preparation of a dip molding composition to adhesion of the dip molding composition to a glove forming mold. Moreover, the types of XNBRs and epoxy crosslinking agents used in dip molding compositions are shown in the respective Tables below.
The pot life of each dip molding composition was determined by the following procedures. The unit of the pot life is day. The dip molding compositions were prepared using the respective epoxy crosslinking agents and stored, and cured films were produced at one-day intervals. […] The number of days of storage until the last acceptable day was defined as the pot life. In this Experimental Example, experiments were conducted until day 7 as the longest duration of storage.

Setting [4] is: 0.5 parts by weight epoxy crosslinking agent, fatigue durability 240 minutes acceptable line, experiments until day 7.

Take `C(OCC1CO1)C(COCC1CO1)OCC1CO1` (stereo not drawn) [epoxy crosslinking agent H, glycerol triglycidyl ether]: the MIBK/water distribution ratio in data set [1] was 28%. In addition, the “Dissolution rate in water” value in data set [2] is reported as 99%. Further, the “Pot life” value in data set [3] (setting [4]) stood at 2 days; in data set [3] (added amount of epoxy crosslinking agent increased to 1.0 part by weight), 3 days.
For `CC(COCC1CO1)OCC1CO1` (stereo not drawn) [epoxy crosslinking agent M, propylene glycol diglycidyl ether], the MIBK/water distribution ratio in data set [1] is recorded as 57%. Further, the “Dissolution rate in water” value in data set [2] is 75%.
For “diglycerol triglycidyl ether [epoxy crosslinking agent G]”, in data set [1], the MIBK/water distribution ratio is on record as 36%. Further, the “Dissolution rate in water” value in data set [2] came to 88%. In data set [3] (setting [4]), the “Pot life” value was 3 days.
Take “polyethylene glycol diglycidyl ether [epoxy crosslinking agent N]”: the MIBK/water distribution ratio in data set [1] was 4%. Further, the “Dissolution rate in water” value in data set [2] turned out to be 99%.
Take “polyglycerol polyglycidyl ether [epoxy crosslinking agent K]”: the MIBK/water distribution ratio in data set [1] (listed as K) came out at 6%. For the same compound, in data set [2], the “Dissolution rate in water” value amounted to 100%.
As to “polyglycerol polyglycidyl ether [epoxy crosslinking agent L]”, the MIBK/water distribution ratio in data set [1] (listed as L) was −10%.
Consider “sorbitol polyglycidyl ether [epoxy crosslinking agent I]”, for which, in data set [1] (listed as I), the MIBK/water distribution ratio turned out to be 26%. Moreover, the “Dissolution rate in water” value in data set [2] (listed as I) is 78%.
Consider “sorbitol polyglycidyl ether [epoxy crosslinking agent J]”, for which the MIBK/water distribution ratio in data set [1] (listed as J) turned out to be 23%. For the same compound, the “Dissolution rate in water” value in data set [2] (listed as J) came out at 94%.

Source of the values: patent US12338351B2, “Dip molding emulsion, method of producing glove, and glove” (Midori Anzen Co., Ltd., priority 2018, dated 2025).
